Assay results: patent publication US6462038B1, “Androgen receptor modulator compounds and methods” (Ligand Pharmaceuticals, Inc., priority 1999, dated 2002)
Read-outs that look alike come from different tables or passages of the source.

Tests used:
hAR [1] = molecular target: T1, hAR (Homo sapiens, UniProt P10275); test: co-transfection assay, AR antagonist (in presence of DHT), CV-1 cells; assay type: cell-based; details: for AR Antagonist CV-1 Cells Efficacy (%): maximal inhibition
T1 construct: expressed in transfected cells; host or cells: CV-1 cells (African green monkey kidney fibroblasts)
T1 sequence (P10275 1-920): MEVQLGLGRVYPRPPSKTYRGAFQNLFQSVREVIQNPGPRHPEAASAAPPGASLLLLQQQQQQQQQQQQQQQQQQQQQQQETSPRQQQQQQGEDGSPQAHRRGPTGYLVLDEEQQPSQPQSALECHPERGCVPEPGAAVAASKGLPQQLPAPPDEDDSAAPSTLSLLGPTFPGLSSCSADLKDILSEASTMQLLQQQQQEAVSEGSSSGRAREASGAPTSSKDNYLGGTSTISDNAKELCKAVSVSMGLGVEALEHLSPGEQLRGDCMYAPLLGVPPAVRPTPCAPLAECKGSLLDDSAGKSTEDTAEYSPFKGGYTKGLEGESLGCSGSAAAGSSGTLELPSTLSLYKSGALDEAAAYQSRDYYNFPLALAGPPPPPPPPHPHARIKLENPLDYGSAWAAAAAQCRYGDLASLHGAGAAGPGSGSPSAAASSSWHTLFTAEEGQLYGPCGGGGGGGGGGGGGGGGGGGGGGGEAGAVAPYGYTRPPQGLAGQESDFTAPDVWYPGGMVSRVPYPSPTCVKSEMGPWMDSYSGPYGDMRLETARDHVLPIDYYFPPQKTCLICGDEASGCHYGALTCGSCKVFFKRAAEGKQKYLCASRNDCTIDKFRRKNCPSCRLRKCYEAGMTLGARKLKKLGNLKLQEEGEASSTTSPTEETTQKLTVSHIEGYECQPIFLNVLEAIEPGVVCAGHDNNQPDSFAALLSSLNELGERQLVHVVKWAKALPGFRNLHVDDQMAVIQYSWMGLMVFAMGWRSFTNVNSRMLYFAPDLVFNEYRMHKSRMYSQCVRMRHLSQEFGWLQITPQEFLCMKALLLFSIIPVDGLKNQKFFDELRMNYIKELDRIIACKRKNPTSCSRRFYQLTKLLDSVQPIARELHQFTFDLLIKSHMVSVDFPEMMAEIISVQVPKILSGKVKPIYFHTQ

hAR [2] = molecular target: T1, hAR; test: co-transfection assay, AR agonist, CV-1 cells; assay type: cell-based; details: for AR Agonist CV-1 Cells Efficacy (%): relative to maximum LUC production by reference agonist
[3] = AR Agonist CV-1 Cells Potency (nM), hAR in CV-1 cells

With `O=c1[nH]c2cc3c(cc2c(C(F)(F)F)c1Cl)N(CC(F)(F)F)CCO3` [Compound 107, 8-Chloro-1,2,3,6-tetrahydro-1-(2,2,2-trifluoroethyl)-9-(trifluoromethyl)-7H-[1,4]oxazino[3,2-g]quinolin-7-one] the IC50 (hAR [1]) was greater than 10 µM, the “AR Antagonist CV-1 Cells Efficacy (%)” value (hAR [1]; hAR in CV-1 cells, DHT at EC50) was “na (na = not active (i.e. efficacy of < 20 and potency of > 10,000 nM for the cotransfection assay, and Ki > 1000 nM for the binding assay))” and the EC50 (hAR [2]) was 26 nM. For the same compound, the “AR Agonist CV-1 Cells Efficacy (%)” value (hAR [2]; hAR in CV-1 cells) was 92%.

For `CC(C)CN1CCOc2cc3c(cc21)c(C(F)(F)F)cc(=O)n3C` [Compound 113, 1,2,3,6-Tetrahydro-1-isobutyl-6-methyl-9-(trifluoromethyl)-7H-[1,4]oxazino[3,2-g]quinolin-7-one], the IC50 (hAR [1]) was 0.061 µM, the “AR Antagonist CV-1 Cells Efficacy (%)” value (hAR [1]; hAR in CV-1 cells, DHT at EC50) was 78% and the EC50 (hAR [2]) was greater than 10000 nM. The “AR Agonist CV-1 Cells Efficacy (%)” value (hAR [2]; hAR in CV-1 cells) was “na (na = not active (i.e. efficacy of < 20 and potency of > 10,000 nM for the cotransfection assay, and Ki > 1000 nM for the binding assay))”.

With `Cn1c(=O)cc(C(F)(F)F)c2cc3c(cc21)OCCN3CC(F)(F)F` [Compound 109, 1,2,3,6-Tetrahydro-6-methyl-1-(2,2,2-trifluoroethyl)-9-(trifluoromethyl)-7H-[1,4]oxazino[3,2-g]quinolin-7-one] the IC50 (hAR [1]) was 0.024 µM, the “AR Antagonist CV-1 Cells Efficacy (%)” value (hAR [1]; hAR in CV-1 cells, DHT at EC50) was 57% and the EC50 (hAR [2]) was greater than 10000 nM. The “AR Agonist CV-1 Cells Efficacy (%)” value (hAR [2]; hAR in CV-1 cells) was “na (na = not active (i.e. efficacy of < 20 and potency of > 10,000 nM for the cotransfection assay, and Ki > 1000 nM for the binding assay))”.

`CC1COc2cc3[nH]c(=O)cc(C(F)(F)F)c3cc2N1CC(F)(F)F` (single isomer, unassigned; (-)) [Compound 125, (−)-1,2,3,6-Tetrahydro-2-methyl-1-(2,2,2-trifluoroethyl)-9-(trifluoromethyl)-7H-[1,4]oxazino[3,2-g]quinolin-7-one] was tested, and the “AR Antagonist CV-1 Cells Efficacy (%)” value (hAR [1]; hAR in CV-1 cells, DHT at EC50) was “na (na = not active (i.e. efficacy of < 20 and potency of > 10,000 nM for the cotransfection assay, and Ki > 1000 nM for the binding assay))”, the IC50 (hAR [1]; read-out: AR Antagonist CV-1 Cells Potency, hAR in CV-1 cells, DHT at EC50) was greater than 10 µM and the EC50 (hAR [2]; [3]) was 0.7 nM. For the same compound, the “AR Agonist CV-1 Cells Efficacy (%)” value (hAR [2]; hAR in CV-1 cells) was 74%.

`O=c1[nH]c2cc3c(cc2c(C(F)(F)F)c1F)N(CC(F)(F)F)CCO3` [Compound 106, 8-Fluoro-1,2,3,6-tetrahydro-1-(2,2,2-trifluoroethyl)-9-(trifluoromethyl)-7H-[1,4]oxazino[3,2-g]quinolin-7-one] was tested, and the IC50 (hAR [1]) was greater than 10 µM, the “AR Antagonist CV-1 Cells Efficacy (%)” value (hAR [1]; hAR in CV-1 cells, DHT at EC50) was “na (na = not active (i.e. efficacy of < 20 and potency of > 10,000 nM for the cotransfection assay, and Ki > 1000 nM for the binding assay))” and the EC50 (hAR [2]) was 4 nM. For the same compound, the “AR Agonist CV-1 Cells Efficacy (%)” value (hAR [2]; hAR in CV-1 cells) was 80%.

In the case of `O=c1cc(C(F)(F)F)c2cc3c(cc2[nH]1)OCC(CO)N3CC(F)(F)F` (racemic) [Compound 130, (±)-1,2,3,6-Tetrahydro-2-(hydroxymethyl)-1-(2,2,2-trifluoroethyl)-9-(trifluoromethyl)-7H-[1,4]oxazino[3,2-g]quinolin-7-one], the “AR Antagonist CV-1 Cells Efficacy (%)” value (hAR [1]; hAR in CV-1 cells, DHT at EC50) is reported as “na (na = not active (i.e. efficacy of < 20 and potency of > 10,000 nM for the cotransfection assay, and Ki > 1000 nM for the binding assay))” and the “AR Agonist CV-1 Cells Efficacy (%)” value (hAR [2]; hAR in CV-1 cells) is reported as 48%.

With `O=c1cc(C(F)F)c2cc3c(cc2[nH]1)OCCN3CC(F)(F)F` [Compound 108, 9-(Difluoromethyl)-1,2,3,6-tetrahydro-1-(2,2,2-trifluoroethyl)-7H-[1,4]oxazino[3,2-g]quinolin-7-one] the IC50 (hAR [1]) was greater than 10 µM, the “AR Antagonist CV-1 Cells Efficacy (%)” value (hAR [1]; hAR in CV-1 cells, DHT at EC50) was “na (na = not active (i.e. efficacy of < 20 and potency of > 10,000 nM for the cotransfection assay, and Ki > 1000 nM for the binding assay))” and the EC50 (hAR [2]) was 14 nM. For the same compound, the “AR Agonist CV-1 Cells Efficacy (%)” value (hAR [2]; hAR in CV-1 cells) was 80%.

`CC1COc2cc3[nH]c(=O)cc(C(F)(F)F)c3cc2N1CC(F)(F)F` (single isomer, unassigned; (+)) [Compound 124, (+)-1,2,3,6-Tetrahydro-2-methyl-1-(2,2,2-trifluoroethyl)-9-(trifluoromethyl)-7H-[1,4]oxazino[3,2-g]quinolin-7-one] was tested, and the IC50 (hAR [1]) was greater than 10 µM, the “AR Antagonist CV-1 Cells Efficacy (%)” value (hAR [1]; hAR in CV-1 cells, DHT at EC50) was “na (na = not active (i.e. efficacy of < 20 and potency of > 10,000 nM for the cotransfection assay, and Ki > 1000 nM for the binding assay))” and the EC50 (hAR [2]; [3]) was 3.6 nM. The “AR Agonist CV-1 Cells Efficacy (%)” value (hAR [2]; hAR in CV-1 cells) was 54%.

`CC[C@@H]1Oc2cc3[nH]c(=O)cc(C(F)(F)F)c3cc2N(CC(F)(F)F)[C@H]1C` (racemic) [Compound 128, (±)-trans-3-Ethyl-1,2,3,6-tetrahydro-2-methyl-1-(2,2,2-trifluoroethyl)-9-(trifluoromethyl)-7H-[1,4]oxazino[3,2-g]quinolin-7-one] was tested, and the IC50 (hAR [1]) was 1.34 µM, the “AR Antagonist CV-1 Cells Efficacy (%)” value (hAR [1]; hAR in CV-1 cells, DHT at EC50) was 42% and the EC50 (hAR [2]) was greater than 10000 nM. The “AR Agonist CV-1 Cells Efficacy (%)” value (hAR [2]; hAR in CV-1 cells) was “na (na = not active (i.e. efficacy of < 20 and potency of > 10,000 nM for the cotransfection assay, and Ki > 1000 nM for the binding assay))”.

In the case of `CC[C@H]1Oc2cc3[nH]c(=O)cc(C(F)(F)F)c3cc2N(CC(F)(F)F)[C@H]1C` (racemic) [Compound 129, (±)-cis-3-Ethyl-1,2,3,6-tetrahydro-2-methyl-1-(2,2,2-trifluoroethyl)-9-(trifluoromethyl)-7H-[1,4]oxazino[3,2-g]quinolin-7-one], the IC50 (hAR [1]) is reported as 0.013 µM, the “AR Antagonist CV-1 Cells Efficacy (%)” value (hAR [1]; hAR in CV-1 cells, DHT at EC50) is reported as 76% and the EC50 (hAR [2]) is reported as 1340 nM. For the same compound, the “AR Agonist CV-1 Cells Efficacy (%)” value (hAR [2]; hAR in CV-1 cells) was 42%.

With `CC(=O)OCC1COc2cc3[nH]c(=O)cc(C(F)(F)F)c3cc2N1CC(F)(F)F` (racemic) [Compound 131, (±)-1,2,3,6-Tetrahydro-2-(acetoxymethyl)-1-(2,2,2-trifluoroethyl)-9-(trifluoromethyl)-7H-[1,4]oxazino[3,2-g]quinolin-7-one] the IC50 (hAR [1]) was greater than 10 µM, the “AR Antagonist CV-1 Cells Efficacy (%)” value (hAR [1]; hAR in CV-1 cells, DHT at EC50) was “na (na = not active (i.e. efficacy of < 20 and potency of > 10,000 nM for the cotransfection assay, and Ki > 1000 nM for the binding assay))” and the EC50 (hAR [2]) was 31 nM. For the same compound, the “AR Agonist CV-1 Cells Efficacy (%)” value (hAR [2]; hAR in CV-1 cells) was 46%.

In the case of `O=c1cc(C(F)(F)F)c2cc3c(cc2[nH]1)OCCN3` [Compound 120, 1,2,3,6-Tetrahydro-9-(trifluoromethyl)-7H-[1,4]oxazino[3,2-g]quinolin-7-one], the “AR Antagonist CV-1 Cells Efficacy (%)” value (hAR [1]; hAR in CV-1 cells, DHT at EC50) is reported as 69% and the “AR Agonist CV-1 Cells Efficacy (%)” value (hAR [2]; hAR in CV-1 cells) is reported as “na (na = not active (i.e. efficacy of < 20 and potency of > 10,000 nM for the cotransfection assay, and Ki > 1000 nM for the binding assay))”.

In the case of `COCC1COc2cc3[nH]c(=O)cc(C(F)(F)F)c3cc2N1CC(F)(F)F` (racemic) [Compound 132, (±)-1,2,3,6-Tetrahydro-2-(methoxymethyl)-1-(2,2,2-trifluoroethyl)-9-(trifluoromethyl)-7H-[1,4]oxazino[3,2-g]quinolin-7-one], the IC50 (hAR [1]) is reported as greater than 10 µM, the “AR Antagonist CV-1 Cells Efficacy (%)” value (hAR [1]; hAR in CV-1 cells, DHT at EC50) is reported as “na (na = not active (i.e. efficacy of < 20 and potency of > 10,000 nM for the cotransfection assay, and Ki > 1000 nM for the binding assay))” and the EC50 (hAR [2]; AR Agonist CV-1 Cells Potency (nM)) is reported as 1.7 nM. The “AR Agonist CV-1 Cells Efficacy (%)” value (hAR [2]; hAR in CV-1 cells) was 72%.

For `O=c1cc(C(F)(F)F)c2cc3c(cc2[nH]1)OCCN3Cc1ccccn1` [Compound 122, 1,2,3,6-Tetrahydro-1-(2-pyridylmethyl)-9-(trifluoromethyl)-7H-[1,4]oxazino[3,2-g]quinolin-7-one], the IC50 (hAR [1]) was 0.632 µM, the “AR Antagonist CV-1 Cells Efficacy (%)” value (hAR [1]; hAR in CV-1 cells, DHT at EC50) was 75% and the EC50 (hAR [2]) was greater than 10000 nM. For the same compound, the “AR Agonist CV-1 Cells Efficacy (%)” value (hAR [2]; hAR in CV-1 cells) was “na (na = not active (i.e. efficacy of < 20 and potency of > 10,000 nM for the cotransfection assay, and Ki > 1000 nM for the binding assay))”.

In the case of `FC(F)(F)CN1CCOc2cc3[nH]c(=S)cc(C(F)(F)F)c3cc21` [Compound 110, 1,2,3,6-Tetrahydro-1-(2,2,2-trifluoroethyl)-9-(trifluoromethyl)-7H-[1,4]oxazino[3,2-g]quinolin-7-thione], the IC50 (hAR [1]) is reported as greater than 10 µM, the “AR Antagonist CV-1 Cells Efficacy (%)” value (hAR [1]; hAR in CV-1 cells, DHT at EC50) is reported as “na (na = not active (i.e. efficacy of < 20 and potency of > 10,000 nM for the cotransfection assay, and Ki > 1000 nM for the binding assay))” and the EC50 (hAR [2]) is reported as 44 nM. For the same compound, the “AR Agonist CV-1 Cells Efficacy (%)” value (hAR [2]; hAR in CV-1 cells) was 90%.
